Experimental data as given in PubChem BioAssay (NCI).
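Tested at 5 concentrations; 48 h exposure; 96-well plates; endpoints linearly interpolated, else capped at highest concentration. Here, GI50 denotes the concentration required for 50% inhibition of growth. TGI: concentration producing complete growth inhibition.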

Legend:
Test in all cases: NCI-60 cell line screen, 48 h
LOX IMVI melanoma = tested on: LOX IMVI melanoma
HT29 colon = tested on: HT29 colon
SN12C renal = tested on: SN12C renal
SK-MEL-2 melanoma = tested on: SK-MEL-2 melanoma
SNB-75 CNS = tested on: SNB-75 CNS
BT-549 breast = tested on: BT-549 breast
OVCAR-4 ovarian = tested on: OVCAR-4 ovarian
CCRF-CEM leukemia = tested on: CCRF-CEM leukemia
SF-539 CNS = tested on: SF-539 CNS
M14 melanoma = tested on: M14 melanoma
A549 NSCLC = tested on: A549 NSCLC
A498 renal = tested on: A498 renal
KM12 colon = tested on: KM12 colon
SK-MEL-5 melanoma = tested on: SK-MEL-5 melanoma
RXF 393 renal = tested on: RXF 393 renal
NCI/ADR-RES ovarian = tested on: NCI/ADR-RES ovarian
HOP-62 NSCLC = tested on: HOP-62 NSCLC
MDA-MB-231 breast = tested on: MDA-MB-231 breast
SK-MEL-28 melanoma = tested on: SK-MEL-28 melanoma
DU-145 prostate = tested on: DU-145 prostate
HS 578T breast = tested on: HS 578T breast
HCT-15 colon = tested on: HCT-15 colon
ACHN renal = tested on: ACHN renal
MCF7 breast = tested on: MCF7 breast
HCC-2998 colon = tested on: HCC-2998 colon
HOP-92 NSCLC = tested on: HOP-92 NSCLC
OVCAR-3 ovarian = tested on: OVCAR-3 ovarian
HCT-116 colon = tested on: HCT-116 colon
NCI-H226 lung = tested on: NCI-H226 lung
MDA-MB-435 = tested on: MDA-MB-435
IGROV1 ovarian = tested on: IGROV1 ovarian
PC-3 prostate = tested on: PC-3 prostate
MALME-3M melanoma = tested on: MALME-3M melanoma
UACC-257 melanoma = tested on: UACC-257 melanoma
OVCAR-8 ovarian = tested on: OVCAR-8 ovarian
SF-268 CNS = tested on: SF-268 CNS
K-562 leukemia = tested on: K-562 leukemia
T-47D breast = tested on: T-47D breast
COLO 205 colon = tested on: COLO 205 colon
NCI-H23 lung = tested on: NCI-H23 lung
786-0 renal = tested on: 786-0 renal
TK-10 renal = tested on: TK-10 renal
CAKI-1 renal = tested on: CAKI-1 renal
U251 CNS = tested on: U251 CNS
EKVX NSCLC = tested on: EKVX NSCLC
SK-OV-3 ovarian = tested on: SK-OV-3 ovarian
SR leukemia = tested on: SR leukemia
RPMI-8226 leukemia = tested on: RPMI-8226 leukemia
NCI-H522 lung = tested on: NCI-H522 lung
HL-60(TB) leukemia = tested on: HL-60(TB) leukemia
UO-31 renal = tested on: UO-31 renal
MOLT-4 leukemia = tested on: MOLT-4 leukemia
SNB-19 CNS = tested on: SNB-19 CNS
NCI-H460 lung = tested on: NCI-H460 lung
UACC-62 melanoma = tested on: UACC-62 melanoma
SW-620 colon = tested on: SW-620 colon
SF-295 CNS = tested on: SF-295 CNS
OVCAR-5 ovarian = tested on: OVCAR-5 ovarian

## CCOC(=O)c1c(NCC(=O)Nc2cccc([N+](=O)[O-])c2)sc2c1CCCC2
LOX IMVI melanoma
  GI50: 195 nM
  TGI: 405 nM
HT29 colon
  GI50: 273 nM
  TGI: 1060 nM
SN12C renal
  GI50: 256 nM
  TGI: 793 nM
SK-MEL-2 melanoma
  GI50: 436 nM
  TGI: 2290 nM
SNB-75 CNS
  GI50: 214 nM
  TGI: 1690 nM
BT-549 breast
  GI50: 211 nM
  TGI: 605 nM
OVCAR-4 ovarian
  GI50: 338 nM
  TGI: 3730 nM
CCRF-CEM leukemia
  GI50: 253 nM
SF-539 CNS
  GI50: 242 nM
  TGI: 644 nM
M14 melanoma
  GI50: 183 nM
  TGI: 361 nM
A549 NSCLC
  GI50: 301 nM
  TGI: 2680 nM
A498 renal
  GI50: 194 nM
  TGI: 392 nM
KM12 colon
  GI50: 315 nM
  TGI: 966 nM
SK-MEL-5 melanoma
  GI50: 182 nM
  TGI: 354 nM
RXF 393 renal
  GI50: 182 nM
  TGI: 360 nM
NCI/ADR-RES ovarian
  GI50: 267 nM
  TGI: 762 nM
HOP-62 NSCLC
  GI50: 416 nM
  TGI: 1990 nM
MDA-MB-231 breast
  GI50: 280 nM
  TGI: 1010 nM
SK-MEL-28 melanoma
  GI50: 235 nM
  TGI: 596 nM
DU-145 prostate
  GI50: 316 nM
  TGI: 1360 nM
HS 578T breast
  GI50: 264 nM
  TGI: 773 nM
HCT-15 colon
  GI50: 265 nM
  TGI: 1330 nM
ACHN renal
  GI50: 281 nM
  TGI: 795 nM
MCF7 breast
  GI50: 272 nM
  TGI: 974 nM
HCC-2998 colon
  GI50: 207 nM
  TGI: 499 nM
HOP-92 NSCLC
  GI50: 209 nM
  TGI: 696 nM
OVCAR-3 ovarian
  GI50: 289 nM
  TGI: 770 nM
HCT-116 colon
  GI50: 263 nM
  TGI: 805 nM
NCI-H226 lung
  GI50: 194 nM
  TGI: 471 nM
MDA-MB-435
  GI50: 328 nM
  TGI: 1090 nM
IGROV1 ovarian
  GI50: 236 nM
  TGI: 738 nM
PC-3 prostate
  GI50: 250 nM
  TGI: 726 nM
MALME-3M melanoma
  GI50: 181 nM
  TGI: 407 nM
UACC-257 melanoma
  GI50: 401 nM
  TGI: 2130 nM
OVCAR-8 ovarian
  GI50: 351 nM
  TGI: > 100000 nM
SF-268 CNS
  GI50: 354 nM
  TGI: 1690 nM
K-562 leukemia
  GI50: 278 nM
T-47D breast
  GI50: 728 nM
  TGI: 3120 nM
COLO 205 colon
  GI50: 274 nM
  TGI: 774 nM
NCI-H23 lung
  GI50: 217 nM
  TGI: 722 nM
786-0 renal
  GI50: 271 nM
  TGI: 840 nM
TK-10 renal
  GI50: 256 nM
  TGI: 782 nM
CAKI-1 renal
  GI50: 251 nM
  TGI: 735 nM
U251 CNS
  GI50: 284 nM
  TGI: 979 nM
EKVX NSCLC
  GI50: 718 nM
  TGI: 3640 nM
SK-OV-3 ovarian
  GI50: 294 nM
  TGI: 856 nM
SR leukemia
  GI50: 276 nM
RPMI-8226 leukemia
  GI50: 310 nM
  TGI: 1060 nM
NCI-H522 lung
  GI50: 226 nM
  TGI: 739 nM
HL-60(TB) leukemia
  GI50: 280 nM
  TGI: 4200 nM
UO-31 renal
  GI50: 198 nM
  TGI: 583 nM
MOLT-4 leukemia
  GI50: 246 nM
  TGI: 4160 nM
SNB-19 CNS
  GI50: 306 nM
  TGI: 1080 nM
NCI-H460 lung
  GI50: 265 nM
  TGI: 707 nM
UACC-62 melanoma
  GI50: 173 nM
  TGI: 380 nM
SW-620 colon
  GI50: 315 nM
  TGI: 1210 nM
SF-295 CNS
  GI50: 310 nM
  TGI: 1180 nM
OVCAR-5 ovarian
  GI50: 270 nM
  TGI: 779 nM

## Cn1cc(-c2nn3cc(-c4ccncc4)nc3s2)c2cc(Cl)ccc21
LOX IMVI melanoma
  GI50: 2640 nM
  TGI: 9260 nM
HT29 colon
  GI50: 2410 nM
  TGI: 7310 nM
SN12C renal
  GI50: 3720 nM
  TGI: 11200 nM
SK-MEL-2 melanoma
  GI50: 5410 nM
  TGI: 14000 nM
SNB-75 CNS
  GI50: 6420 nM
  TGI: 24200 nM
BT-549 breast
  GI50: 3390 nM
  TGI: 13300 nM
OVCAR-4 ovarian
  GI50: 5030 nM
  TGI: 13600 nM
CCRF-CEM leukemia
  GI50: 2060 nM
  TGI: 5400 nM
SF-539 CNS
  GI50: 4670 nM
  TGI: 10200 nM
M14 melanoma
  GI50: 1600 nM
  TGI: 3140 nM
A549 NSCLC
  GI50: 11200 nM
  TGI: 51700 nM
A498 renal
  GI50: 9380 nM
  TGI: 23700 nM
KM12 colon
  GI50: 12500 nM
  TGI: 37500 nM
SK-MEL-5 melanoma
  GI50: 3020 nM
  TGI: 8250 nM
RXF 393 renal
  GI50: 3370 nM
  TGI: 9850 nM
NCI/ADR-RES ovarian
  GI50: 2700 nM
  TGI: 8210 nM
HOP-62 NSCLC
  GI50: 4400 nM
  TGI: > 27800 nM
MDA-MB-231 breast
  GI50: 1580 nM
  TGI: 3240 nM
SK-MEL-28 melanoma
  GI50: 2000 nM
  TGI: 3770 nM
DU-145 prostate
  GI50: 6230 nM
  TGI: 17400 nM
HS 578T breast
  GI50: 4730 nM
  TGI: 27200 nM
HCT-15 colon
  GI50: 1830 nM
  TGI: 3780 nM
ACHN renal
  GI50: 4780 nM
  TGI: 25300 nM
MCF7 breast
  GI50: 1230 nM
  TGI: 3340 nM
HCC-2998 colon
  GI50: 3640 nM
  TGI: 10100 nM
HOP-92 NSCLC
  GI50: 1610 nM
  TGI: 5300 nM
OVCAR-3 ovarian
  GI50: 5800 nM
  TGI: 27100 nM
HCT-116 colon
  GI50: 1760 nM
  TGI: 3300 nM
NCI-H226 lung
  GI50: 4860 nM
  TGI: 26100 nM
MDA-MB-435
  GI50: 2840 nM
  TGI: 8700 nM
IGROV1 ovarian
  GI50: 2120 nM
  TGI: 17200 nM
PC-3 prostate
  GI50: 2480 nM
  TGI: 7820 nM
MALME-3M melanoma
  GI50: 3160 nM
  TGI: 18300 nM
UACC-257 melanoma
  GI50: 8580 nM
  TGI: 25200 nM
OVCAR-8 ovarian
  GI50: 2360 nM
  TGI: 7700 nM
SF-268 CNS
  GI50: 6320 nM
  TGI: 24400 nM
K-562 leukemia
  GI50: 2150 nM
  TGI: 5300 nM
T-47D breast
  GI50: 3300 nM
  TGI: 18600 nM
COLO 205 colon
  GI50: 3390 nM
  TGI: 9200 nM
NCI-H23 lung
  GI50: 5380 nM
  TGI: 25400 nM
TK-10 renal
  GI50: 14400 nM
  TGI: 30900 nM
CAKI-1 renal
  GI50: 8310 nM
  TGI: 28600 nM
U251 CNS
  GI50: 9150 nM
  TGI: 45400 nM
EKVX NSCLC
  GI50: 2300 nM
  TGI: 8540 nM
SK-OV-3 ovarian
  GI50: 12300 nM
  TGI: 30600 nM
SR leukemia
  GI50: 1690 nM
  TGI: 4610 nM
RPMI-8226 leukemia
  GI50: 2240 nM
  TGI: 6240 nM
NCI-H522 lung
  GI50: 2560 nM
  TGI: 10200 nM
HL-60(TB) leukemia
  GI50: 1540 nM
  TGI: 3260 nM
UO-31 renal
  GI50: 4030 nM
  TGI: 22600 nM
MOLT-4 leukemia
  GI50: 2100 nM
  TGI: 5230 nM
SNB-19 CNS
  GI50: 7980 nM
  TGI: 32700 nM
NCI-H460 lung
  GI50: 4600 nM
  TGI: 17500 nM
UACC-62 melanoma
  GI50: 11400 nM
  TGI: 31700 nM
SW-620 colon
  GI50: 1890 nM
  TGI: 4270 nM
SF-295 CNS
  GI50: 2980 nM
  TGI: 8520 nM
OVCAR-5 ovarian
  GI50: 1860 nM
  TGI: 3850 nM
